Where no end group is shown, it is not given here. [ ]: non-standard residue; d: D form.
Tests used:
3T3-L1 mouse adipocytes = assay: Lipolytic activity: glycerol release in differentiated 3T3-L1 mouse adipocytes (12 h); type: cell-based; settings: 3T3-L1 mouse adipocytes, 12 h
Protocol: JCRB9014-A) from Tebu-Bio (Tebu-bio, Barcelona, Spain). Briefly, mouse adipocytes (3T3-L1 cells) were cultured in 48 well plates as described previously (Saez-Lopez et al., 2020). Adipocytes were differentiated using cell culture reagents purchased from Tebu-Bio and following the manufacturer's instructions. At day of differentiation cells were treated in duplicates with vehicle (DMSO), Caffeine (100 μg/ml), and each of the peptides at the specified doses in Table 6a below. At the end of the experiment (12 h), supernatants were collected and glycerol content was measured using a Glycerol Assay Kit (Sigma) following manufacturer's instructions.

[1] = system: human subcutaneoous mature adipocytes; assay: Lipolytic activity: glycerol release in human adipocytes (Lipolysis Assay kit); type: cell-based; settings: human subcutaneous mature adipocytes

For “DPEGVI (H-[dD][dP][dE]G[dV][dI]-OH; SMILES CC[C@@H](C)[C@@H](NC(=O)[C@H](NC(=O)CNC(=O)[C@@H](CCC(=O)O)NC(=O)[C@H]1CCCN1C(=O)[C@H](N)CC(=O)O)C(C)C)C(=O)O) [GP3D-6 I II IX X, N-term NH2, C-term COOH]”, the “Lipolysis Activity measured as Glycerol (μM) release in media” value (from here on “Lipolysis Activity measured as Glycerol”) (3T3-L1 mouse adipocytes; 1 μg/ml) was 326 µM, the “Lipolysis Activity measured as Glycerol” value (3T3-L1 mouse adipocytes; 10 μg/ml) was 300 µM and the “Lipolysis Activity measured as Glycerol” value (3T3-L1 mouse adipocytes; 100 μg/ml) was 368 µM. For the same substance, the “Lipolysis Activity measured as Glycerol” value ([1]; 25 μg/ml) was 17.01 µM, the “Lipolysis Activity measured as Glycerol” value ([1]; 50 μg/ml) was 40.79 µM and the “Lipolysis Activity measured as Glycerol” value ([1]; 75 μg/ml) was 43.36 µM. For the same substance, the “Lipolysis Activity measured as Glycerol” value ([1]; 100 μg/ml) was 53.13 µM.
With “TWDPGVIFY (H-[dT][dW][dD][dP]G[dV][dI][dF][dY]-OH; not fully specified) [GP3D-9 V, N-term NH2, C-term COOH]” the “Lipolysis Activity measured as Glycerol” value (3T3-L1 mouse adipocytes; 100 μg/ml) was 394 µM.
With “DPEGVIF (H-[dD][dP][dE]G[dV][dI][dF]-OH; SMILES CC[C@@H](C)[C@@H](NC(=O)[C@H](NC(=O)CNC(=O)[C@@H](CCC(=O)O)NC(=O)[C@H]1CCCN1C(=O)[C@H](N)CC(=O)O)C(C)C)C(=O)N[C@H](Cc1ccccc1)C(=O)O) [GP3D-7 I II X, N-term NH2, C-term COOH]” the “Lipolysis Activity measured as Glycerol” value (3T3-L1 mouse adipocytes; 1 μg/ml) was 391 µM, the “Lipolysis Activity measured as Glycerol” value (3T3-L1 mouse adipocytes; 10 μg/ml) was 405 µM and the “Lipolysis Activity measured as Glycerol” value (3T3-L1 mouse adipocytes; 100 μg/ml) was 313 µM. For the same substance, the “Lipolysis Activity measured as Glycerol” value ([1]; 25 μg/ml) was 17.04 µM, the “Lipolysis Activity measured as Glycerol” value ([1]; 50 μg/ml) was 34.80 µM and the “Lipolysis Activity measured as Glycerol” value ([1]; 75 μg/ml) was 48.09 µM. For the same substance, the “Lipolysis Activity measured as Glycerol” value ([1]; 100 μg/ml) was 58.31 µM.
In the case of “DPEGVFY (H-[dD][dP][dE]G[dV][dF][dY]-OH; SMILES CC(C)[C@@H](NC(=O)CNC(=O)[C@@H](CCC(=O)O)NC(=O)[C@H]1CCCN1C(=O)[C@H](N)CC(=O)O)C(=O)N[C@H](Cc1ccccc1)C(=O)N[C@H](Cc1ccc(O)cc1)C(=O)O) [GP3D-7 I II VIII, N-term NH2, C-term COOH]”, the “Lipolysis Activity measured as Glycerol” value (3T3-L1 mouse adipocytes; 1 μg/ml) is reported as 485 µM, the “Lipolysis Activity measured as Glycerol” value (3T3-L1 mouse adipocytes; 10 μg/ml) is reported as 325 µM and the “Lipolysis Activity measured as Glycerol” value (3T3-L1 mouse adipocytes; 100 μg/ml) is reported as 340 µM.
“TDPEGVIY (H-[dT][dD][dP][dE]G[dV][dI][dY]-OH; not fully specified) [GP3D-8 II IX, N-term NH2, C-term COOH]” was tested, and the “Lipolysis Activity measured as Glycerol” value (3T3-L1 mouse adipocytes; 1 μg/ml) was 557 µM, the “Lipolysis Activity measured as Glycerol” value (3T3-L1 mouse adipocytes; 10 μg/ml) was 508 µM and the “Lipolysis Activity measured as Glycerol” value (3T3-L1 mouse adipocytes; 100 μg/ml) was 370 µM.
In the case of “TWDPEGVI (H-[dT][dW][dD][dP][dE]G[dV][dI]-OH; not fully specified) [GP3D-8 IX X, N-term NH2, C-term COOH]”, the “Lipolysis Activity measured as Glycerol” value (3T3-L1 mouse adipocytes; 1 μg/ml) is reported as 396 µM, the “Lipolysis Activity measured as Glycerol” value (3T3-L1 mouse adipocytes; 10 μg/ml) is reported as 383 µM and the “Lipolysis Activity measured as Glycerol” value (3T3-L1 mouse adipocytes; 100 μg/ml) is reported as 528 µM.
With “TDPEGVIF (H-[dT][dD][dP][dE]G[dV][dI][dF]-OH; not fully specified) [GP3D-8 II X, N-term NH2, C-term COOH]” the “Lipolysis Activity measured as Glycerol” value (3T3-L1 mouse adipocytes; 1 μg/ml) was 391 µM, the “Lipolysis Activity measured as Glycerol” value (3T3-L1 mouse adipocytes; 10 μg/ml) was 434 µM and the “Lipolysis Activity measured as Glycerol” value (3T3-L1 mouse adipocytes; 100 μg/ml) was 493 µM.
For “WDPEG (H-[dW][dD][dP][dE]G-OH; SMILES N[C@H](Cc1c[nH]c2ccccc12)C(=O)N[C@H](CC(=O)O)C(=O)N1CCC[C@@H]1C(=O)N[C@H](CCC(=O)O)C(=O)NCC(=O)O) [GP3D-5 I VII VIII IX X, N-term NH2, C-term COOH]”, the “Lipolysis Activity measured as Glycerol” value (3T3-L1 mouse adipocytes; 1 μg/ml) was 368 µM, the “Lipolysis Activity measured as Glycerol” value (3T3-L1 mouse adipocytes; 10 μg/ml) was 349 µM and the “Lipolysis Activity measured as Glycerol” value (3T3-L1 mouse adipocytes; 100 μg/ml) was 398 µM.
“TWDPEG (H-[dT][dW][dD][dP][dE]G-OH; SMILES C[C@H](O)[C@@H](N)C(=O)N[C@H](Cc1c[nH]c2ccccc12)C(=O)N[C@H](CC(=O)O)C(=O)N1CCC[C@@H]1C(=O)N[C@H](CCC(=O)O)C(=O)NCC(=O)O) [GP3D-6 VII VIII IX X, N-term NH2, C-term COOH]” was tested, and the “Lipolysis Activity measured as Glycerol” value (3T3-L1 mouse adipocytes; 1 μg/ml) was 404 µM and the “Lipolysis Activity measured as Glycerol” value (3T3-L1 mouse adipocytes; 10 μg/ml) was 327 µM.
In the case of “DPEGVLY (H-[dD][dP][dE]G[dV][dL][dY]-OH; SMILES CC(C)C[C@@H](NC(=O)[C@H](NC(=O)CNC(=O)[C@@H](CCC(=O)O)NC(=O)[C@H]1CCCN1C(=O)[C@H](N)CC(=O)O)C(C)C)C(=O)N[C@H](Cc1ccc(O)cc1)C(=O)O) [GP3D-DM3, N-term NH2, C-term COOH]”, the “Lipolysis Activity measured as Glycerol” value (3T3-L1 mouse adipocytes; 100 μg/ml) is reported as 307 µM.
“TWDPEGVIY (H-[dT][dW][dD][dP][dE]G[dV][dI][dY]-OH; not fully specified) [GP3D-9 IX, N-term NH2, C-term COOH]” was tested, and the “Lipolysis Activity measured as Glycerol” value (3T3-L1 mouse adipocytes; 100 μg/ml) was 356 µM.
With “TWDPEGVIF (H-[dT][dW][dD][dP][dE]G[dV][dI][dF]-OH; not fully specified) [GP3D-9 X, N-term NH2, C-term COOH]” the “Lipolysis Activity measured as Glycerol” value (3T3-L1 mouse adipocytes; 100 μg/ml) was 493 µM.
With “TWPEGVIFY (H-[dT][dW][dP][dE]G[dV][dI][dF][dY]-OH; not fully specified) [GP3D-9 III, N-term NH2, C-term COOH]” the “Lipolysis Activity measured as Glycerol” value (3T3-L1 mouse adipocytes; 100 μg/ml) was 346 µM.
“WDNEGLY (H-[dW][dD][dN][dE]G[dL][dY]-OH; SMILES CC(C)C[C@@H](NC(=O)CNC(=O)[C@@H](CCC(=O)O)NC(=O)[C@@H](CC(N)=O)NC(=O)[C@@H](CC(=O)O)NC(=O)[C@H](N)Cc1c[nH]c2ccccc12)C(=O)N[C@H](Cc1ccc(O)cc1)C(=O)O) [GP3D-DM4, N-term NH2, C-term COOH]” was tested, and the “Lipolysis Activity measured as Glycerol” value (3T3-L1 mouse adipocytes; 1 μg/ml) was 469 µM, the “Lipolysis Activity measured as Glycerol” value (3T3-L1 mouse adipocytes; 10 μg/ml) was 416 µM and the “Lipolysis Activity measured as Glycerol” value (3T3-L1 mouse adipocytes; 100 μg/ml) was 309 µM.
For “DPEGVIFY (H-[dD][dP][dE]G[dV][dI][dF][dY]-OH; not fully specified) [GP3D-8 I II, N-term NH2, C-term COOH]”, the “Lipolysis Activity measured as Glycerol” value (3T3-L1 mouse adipocytes; 1 μg/ml) was 401 µM, the “Lipolysis Activity measured as Glycerol” value (3T3-L1 mouse adipocytes; 10 μg/ml) was 474 µM and the “Lipolysis Activity measured as Glycerol” value (3T3-L1 mouse adipocytes; 100 μg/ml) was 468 µM.
With “TWDPEVIFY (H-[dT][dW][dD][dP][dE][dV][dI][dF][dY]-OH; not fully specified) [GP3D-9 VI, N-term NH2, C-term COOH]” the “Lipolysis Activity measured as Glycerol” value (3T3-L1 mouse adipocytes; 100 μg/ml) was 315 µM.
With “WDPEGVY (H-[dW][dD][dP][dE]G[dV][dY]-OH; SMILES CC(C)[C@@H](NC(=O)CNC(=O)[C@@H](CCC(=O)O)NC(=O)[C@H]1CCCN1C(=O)[C@@H](CC(=O)O)NC(=O)[C@H](N)Cc1c[nH]c2ccccc12)C(=O)N[C@H](Cc1ccc(O)cc1)C(=O)O) [GP3D-7 I VIII IX, N-term NH2, C-term COOH]” the “Lipolysis Activity measured as Glycerol” value (3T3-L1 mouse adipocytes; 10 μg/ml) was 314 µM.
“TWDPEGVIFY [GP3D-NH2] ([dT][dW][dD][dP][dE]G[dV][dI][dF][dY]-NH2; N-terminus assumed; SMILES CC[C@@H](C)[C@@H](NC(=O)[C@H](NC(=O)CNC(=O)[C@@H](CCC(=O)O)NC(=O)[C@H]1CCCN1C(=O)[C@@H](CC(=O)O)NC(=O)[C@@H](Cc1c[nH]c2ccccc12)NC(=O)[C@H](N)[C@H](C)O)C(C)C)C(=O)N[C@H](Cc1ccccc1)C(=O)N[C@H](Cc1ccc(O)cc1)C(N)=O) [N-term NH2, C-term CONH2]” was tested, and the “Lipolysis Activity measured as Glycerol” value (3T3-L1 mouse adipocytes; 1 μg/ml) was 506 µM, the “Lipolysis Activity measured as Glycerol” value (3T3-L1 mouse adipocytes; 10 μg/ml) was 449 µM and the “Lipolysis Activity measured as Glycerol” value (3T3-L1 mouse adipocytes; 100 μg/ml) was 368 µM.
“WDPEGVIF (H-[dW][dD][dP][dE]G[dV]I[dF]-OH; not fully specified (residue 7)) [GP3D-8 I X, N-term NH2, C-term COOH]” was tested, and the “Lipolysis Activity measured as Glycerol” value (3T3-L1 mouse adipocytes; 1 μg/ml) was 616 µM, the “Lipolysis Activity measured as Glycerol” value (3T3-L1 mouse adipocytes; 10 μg/ml) was 465 µM and the “Lipolysis Activity measured as Glycerol” value (3T3-L1 mouse adipocytes; 100 μg/ml) was 441 µM.
In the case of “TWDPEGIFY (H-[dT][dW][dD][dP][dE]G[dI][dF][dY]-OH; not fully specified) [GP3D-9 VII, N-term NH2, C-term COOH]”, the “Lipolysis Activity measured as Glycerol” value (3T3-L1 mouse adipocytes; 100 μg/ml) is reported as 354 µM.
In the case of “WDPEGVIFY (H-[dW][dD][dP][dE]G[dV]I[dF][dY]-OH; not fully specified (residue 7)) [GP3D-9 I, N-term NH2, C-term COOH]”, the “Lipolysis Activity measured as Glycerol” value (3T3-L1 mouse adipocytes; 100 μg/ml) is reported as 344 µM.
With “TDPEGVIFY (H-[dT][dD][dP][dE]G[dV][dI][dF][dY]-OH; not fully specified) [GP3D-9 II, N-term NH2, C-term COOH]” the “Lipolysis Activity measured as Glycerol” value (3T3-L1 mouse adipocytes; 100 μg/ml) was 315 µM.
In the case of “WDPEGVIY (H-[dW][dD][dP][dE]G[dV]I[dY]-OH; not fully specified (residue 7)) [GP3D-8 I IX, N-term NH2, C-term COOH]”, the “Lipolysis Activity measured as Glycerol” value (3T3-L1 mouse adipocytes; 1 μg/ml) is reported as 452 µM, the “Lipolysis Activity measured as Glycerol” value (3T3-L1 mouse adipocytes; 10 μg/ml) is reported as 426 µM and the “Lipolysis Activity measured as Glycerol” value (3T3-L1 mouse adipocytes; 100 μg/ml) is reported as 588 µM.

From patent US20250154197A1, “LIPOLYTIC PEPTIDES” (FUNDACIÓ HOSPITAL UNIVERSITARI VALL D'HEBRON - INSTITUT DE …, priority 2021, published 2025)
